Reference: US11304419B2, “Methods to induce heat stress tolerance in plants” (Valent BioSciences LLC, priority 2020, dated 2022)

What was measured:
Assay type in all cases: in vivo
[1] = test system: dwarf variety of Brassica napus; assay: Heat stress tolerance in Brassica napus following ACC application; details: heat stress 36/30° C. seven days; for Seed Number per Pod / Seed Yield per Pod / Single Seed Weight: n = 10; for Seed Number per Pod, percent increase over treatment control / Seed Yield per Pod, percent increase over treatment control / Single Seed Weight, percent increase over treatment control: vs treatment control
Procedure: A dwarf variety of Brassica napus commonly used as an experimental model for the canola variety of B. napus was seeded into ProMix BX (Premier Horticulture) and grown in a greenhouse. […] Following spraying, plants were moved to a growth cabinet under the following conditions: 24/18 C day night temperatures under a 16/8 light dark period. Next, 2 days following treatment, half of the plants were transferred to a second growth cabinet at 36/30° C. day/night temperature under a 16/8-hour light/dark photoperiod for seven days. These conditions constitute early season heat stress. At all times flowers and pods were pruned to keep the number of pods to about 10. Plants were then destructively harvested and measured for seed yield, seed numbers, seed yield per pod, seed number per pod and single seed weight.

Apogee wheat [2] = assay: Heat stress tolerance in wheat following ACC application at Feekes stage 5 (Example 3); details: heat stress 34/28° C. 4 days; for % Reproductive Tillers / Fresh Weight / Total Dry Weight / Total Spike Number / Total Tiller Number / Δ Canopy Density: n = 8; for % Reproductive Tillers, percent increase over stress control / Fresh Weight, percent increase over stress control / Total Dry Weight, percent increase over stress control / Total Spike Number, percent increase over stress control / Total Tiller Number, percent increase over stress control / Δ Canopy Density, percent increase over stress control: vs stress control (no heat); for % Reproductive Tillers, percent increase over treatment control / Fresh Weight, percent increase over treatment control / Total Dry Weight, percent increase over treatment control / Total Spike Number, percent increase over treatment control / Total Tiller Number, percent increase over treatment control / Δ Canopy Density, percent increase over treatment control: vs treatment control (heat, no ACC)
Procedure: Apogee wheat was seeded into ProMix BX (Premier Horticulture) and grown in a growth cabinet under the following conditions: 24/18° C. day/night temperature under a 16/8 hour light/dark photoperiod. Plants were at Feekes stage 5 following the first set of growth conditions. Next, spray applications of 0, 0, 100 or 300 ppm ACC (n=8) were made using a track sprayer on Oct. 4, 2019. […] These conditions constitute significant heat stress. The other set of control plants (“stress control”) remained in the first growth cabinet. Finally, the plants were then returned to the first growth cabinet for about 14 days where plants reached Feekes stage 10.1 (head emergence). Plants were then destructively harvested and measured for total spike number, fresh weight, total reproductive tiller number, percent reproductive tillers, A canopy density and total dry weight. Percent reproductive tillers is calculated by dividing the number of reproductive tillers by the total number of spikes at harvest. A canopy density is calculated by subtracting the canopy density at treatment from the canopy density at harvest.

Apogee wheat [3] = assay: Heat stress tolerance in wheat following ACC application at Feekes stage 5 (Example 2); details: heat stress 34/28° C. 4 days
Procedure: Apogee wheat was seeded into ProMix BX (Premier Horticulture) and grown in a growth cabinet under the following conditions: 24/18° C. day/night temperature under a 16/8 hour light/dark photoperiod. Plants were evaluated at Feekes stage 5 following the first set of growth conditions on Nov. 15, 2019. Next, spray applications of 0, 0 or 100 ppm ACC (n=8) were made using a track sprayer. Next, 2 days following treatment, one set of control plants (“treatment control”) and the 100 ppm ACC plants were transferred to a second growth cabinet at 34/28° C. day/night temperature under a 16/8-hour light/dark photoperiod for 4 days. These conditions constitute significant heat stress. The other set of control plants (“stress control”) remained in the first growth cabinet. Finally, the plants were then returned to the first growth cabinet for about 14 days where plants reached Feekes stage 10.1 (head emergence). Plants were then destructively harvested and measured for total spike number, fresh weight, total reproductive tiller number, percent reproductive tillers, A canopy density and total dry weight. Percent reproductive tillers is calculated by dividing the number of reproductive tillers by the total number of spikes at harvest. A canopy density is calculated by subtracting the canopy density at treatment from the canopy density at harvest.

[4] = 100 ppm ACC spray at Feekes stage 5
[5] = 300 ppm ACC spray at Feekes stage 5
[6] = 100 ppm ACC spray at Feekes stage 5, n = 8
[7] = 100 ppm ACC, vs stress control (no heat)
[8] = 100 ppm ACC, vs treatment control (heat, no ACC)

NC1(C(=O)O)CC1 [ACC, 1-amino-1-cyclopropanecarboxylic acid]
Seed Number per Pod ([1]; 10 ppm ACC spray at flowering): 14.8 | Seed Yield per Pod ([1]; 10 ppm ACC spray at flowering): 0.029 grams | Single Seed Weight ([1]; 10 ppm ACC spray at flowering): 0.0019 grams | Seed Number per Pod, percent increase over treatment control ([1]; 10 ppm ACC): [6.5%] | Seed Yield per Pod, percent increase over treatment control ([1]; 10 ppm ACC): [0%] | Single Seed Weight, percent increase over treatment control ([1]; 10 ppm ACC): [−9.5%] | Seed Number per Pod ([1]; 30 ppm ACC spray at flowering): 15.1 | Seed Yield per Pod ([1]; 30 ppm ACC spray at flowering): 0.033 grams | Single Seed Weight ([1]; 30 ppm ACC spray at flowering): 0.0021 grams | Seed Number per Pod, percent increase over treatment control ([1]; 30 ppm ACC): [8.6%] | Seed Yield per Pod, percent increase over treatment control ([1]; 30 ppm ACC): [13.8%] | Single Seed Weight, percent increase over treatment control ([1]; 30 ppm ACC): [0%] | Seed Number per Pod ([1]; 100 ppm ACC spray at flowering): 17.4 | Seed Yield per Pod ([1]; 100 ppm ACC spray at flowering): 0.036 grams | Single Seed Weight ([1]; 100 ppm ACC spray at flowering): 0.0020 grams | Seed Number per Pod, percent increase over treatment control ([1]; 100 ppm ACC): [25.2%] | Seed Yield per Pod, percent increase over treatment control ([1]; 100 ppm ACC): [24.1%] | Single Seed Weight, percent increase over treatment control ([1]; 100 ppm ACC): [−4.8%] | Seed Number per Pod ([1]; 300 ppm ACC spray at flowering): 15.6 | Seed Yield per Pod ([1]; 300 ppm ACC spray at flowering): 0.030 grams | Single Seed Weight ([1]; 300 ppm ACC spray at flowering): 0.0019 grams | Seed Number per Pod, percent increase over treatment control ([1]; 300 ppm ACC): [12.2%] | Seed Yield per Pod, percent increase over treatment control ([1]; 300 ppm ACC): [3.4%] | Single Seed Weight, percent increase over treatment control ([1]; 300 ppm ACC): [−9.5%] | % Reproductive Tillers (Apogee wheat [2]; [4]): 63.80% | Fresh Weight (Apogee wheat [2]; [4]): 17.95 grams | Total Dry Weight (Apogee wheat [2]; [4]): 4.31 grams | Total Spike Number (Apogee wheat [2]; [4]): 7 | Total Tiller Number (Apogee wheat [2]; [4]): 4.38 | Δ Canopy Density (Apogee wheat [2]; [4]): 2.65% | % Reproductive Tillers, percent increase over stress control (Apogee wheat [2]; 100 ppm ACC): (−11.5%) | Fresh Weight, percent increase over stress control (Apogee wheat [2]; 100 ppm ACC): (4.6%) | Total Dry Weight, percent increase over stress control (Apogee wheat [2]; 100 ppm ACC): (−5.5%) | Total Spike Number, percent increase over stress control (Apogee wheat [2]; 100 ppm ACC): (24.3%) | Total Tiller Number, percent increase over stress control (Apogee wheat [2]; 100 ppm ACC): (9.5%) | Δ Canopy Density, percent increase over stress control (Apogee wheat [2]; 100 ppm ACC): (3.5%) | % Reproductive Tillers, percent increase over treatment control (Apogee wheat [2]; 100 ppm ACC): [−0.8%] | Fresh Weight, percent increase over treatment control (Apogee wheat [2]; 100 ppm ACC): [5.8%] | Total Dry Weight, percent increase over treatment control (Apogee wheat [2]; 100 ppm ACC): [11.1%] | Total Spike Number, percent increase over treatment control (Apogee wheat [2]; 100 ppm ACC): [12.0%] | Total Tiller Number, percent increase over treatment control (Apogee wheat [2]; 100 ppm ACC): [12.9%] | Δ Canopy Density, percent increase over treatment control (Apogee wheat [2]; 100 ppm ACC): [5.2%] | % Reproductive Tillers (Apogee wheat [2]; [5]): 63.10% | Fresh Weight (Apogee wheat [2]; [5]): 16.74 grams | Total Dry Weight (Apogee wheat [2]; [5]): 4.33 grams | Total Spike Number (Apogee wheat [2]; [5]): 6.38 | Total Tiller Number (Apogee wheat [2]; [5]): 3.88 | Δ Canopy Density (Apogee wheat [2]; [5]): 2.36% | % Reproductive Tillers, percent increase over stress control (Apogee wheat [2]; 300 ppm ACC): (−12.5%) | Fresh Weight, percent increase over stress control (Apogee wheat [2]; 300 ppm ACC): (−2.4%) | Total Dry Weight, percent increase over stress control (Apogee wheat [2]; 300 ppm ACC): (−5.0%) | Total Spike Number, percent increase over stress control (Apogee wheat [2]; 300 ppm ACC): (13.3%) | Total Tiller Number, percent increase over stress control (Apogee wheat [2]; 300 ppm ACC): (−3.0%) | Δ Canopy Density, percent increase over stress control (Apogee wheat [2]; 300 ppm ACC): (−7.8%) | % Reproductive Tillers, percent increase over treatment control (Apogee wheat [2]; 300 ppm ACC): [−1.9%] | Fresh Weight, percent increase over treatment control (Apogee wheat [2]; 300 ppm ACC): [−1.4%] | Total Dry Weight, percent increase over treatment control (Apogee wheat [2]; 300 ppm ACC): [11.6%] | Total Spike Number, percent increase over treatment control (Apogee wheat [2]; 300 ppm ACC): [2.1%] | Total Tiller Number, percent increase over treatment control (Apogee wheat [2]; 300 ppm ACC): [0%] | Δ Canopy Density, percent increase over treatment control (Apogee wheat [2]; 300 ppm ACC): [−6.3%] | % Reproductive Tillers (Apogee wheat [3]; [6]): 89.60% | Fresh Weight (Apogee wheat [3]; [6]): 9.18 grams | Total Dry Weight (Apogee wheat [3]; [6]): 2.12 grams | Total Spike Number (Apogee wheat [3]; [6]): 3.13 | Total Tiller Number (Apogee wheat [3]; [6]): 2.75 | Δ Canopy Density (Apogee wheat [3]; [6]): 1.52 | Fresh Weight, percent increase over stress control (Apogee wheat [3]; [7]): (−18.8%) | Total Dry Weight, percent increase over stress control (Apogee wheat [3]; [7]): (−16.9%) | Total Spike Number, percent increase over stress control (Apogee wheat [3]; [7]): (−7.1%) | Total Tiller Number, percent increase over stress control (Apogee wheat [3]; [7]): (−12.1%) | % Reproductive Tillers, percent increase over treatment control (Apogee wheat [3]; [8]): [43.4%] | Fresh Weight, percent increase over treatment control (Apogee wheat [3]; [8]): [19.2%] | Total Dry Weight, percent increase over treatment control (Apogee wheat [3]; [8]): [7.6%] | Total Spike Number, percent increase over treatment control (Apogee wheat [3]; [8]): [−3.7%] | Total Tiller Number, percent increase over treatment control (Apogee wheat [3]; [8]): [37.5%] | Δ Canopy Density, percent increase over treatment control (Apogee wheat [3]; [8]): [42.1%]
